# Values joined by “and” are separate entries in the source; they are usually repeats but may differ in a detail not shown here. Equal entries are not always repeated.
# What was measured:
# Vg9Vd2 T cells = assay: Peripheral Vg9Vd2 T cell expansion in cynomolgus monkeys by flow cytometry (BrHPP non-GLP studies); assay type: in vivo, cynomolgus monkeys (M. fascicularis); details: for Absolute increase of Vg9Vd2: individual animals
# Procedure: • Group 1: 5 purpose bred healthy male cynomolgus monkeys (M. fascicularis), supplied by C.R.P. Le Vallon, Ferney S.E., Mahebourg, Mauritius. At the beginning of the study, body weights range from 3.7 to 4.6 kg. • Group 2: 10 purpose bred healthy cynomolgus monkeys (5 males and 5 females), supplied by C.R.P. Le Vallon. At the beginning of the study, body weights range from 1.8 to 3.5 kg and ages from 2 to 3 years.
# • Group 1: animals were anaesthetised with intra-muscular injection of 6 mg/kg ZoletilND 100 (Tiletamine-Zolazepam, Virbac, Carros, France) before any injection or blood taking. • Group 2: injections and blood taking were performed on manually restrained non-anaesthetised animals. • 4-day BrHPP alone treatment (group 1): 2 animals received 1 mg/kg of BrHPP in 10 ml saline on day 0 (microflex infusion set introduced into the external saphenous vein) and then 4 mg/kg, 16 mg/kg and 32 mg/kg in 20 ml saline on days 1, 2 and 3 by the same way. (Duration of infusion: 10 to 15 min). • BrHPP/IL2 co-treatments (group 1): 5 animals received either 20 mg/kg once or 4 mg/kg (16.7 mg/kg or 3.3 mg/kg of BrHPP anionic form) 5 times daily of BrHPP in final 50 ml saline by the same way as above (duration of infusion: 30 min). IL2 (18 million UI per vial, Proleukin®, Chiron, US) was resuspended in 1 ml sterile water and diluted to 10 ml with 4% HSA for a final concentration of 1.8 million UI/ml. In a first cycle of treatment, all animals received the same dose of IL2 consisting of 5 days of twice daily injections of 0.9 million units IL2. In a second cycle of treatment, animals received subcutaneously the following IL2 treatment: 0.15 million units twice daily for 9 days (animal Z059), 0.3 million units twice daily for 5 days (Z135), 0.9 million units twice daily for 5 days (animal Z714) or 9 days (animal X973).
# A single animal received 80 mg/kg (66.6 mg/kg anionic form) BrHPP+9 days of IL2 co-treatment consisting of a single daily subcutaneous injection of 0.6 million units. • BrHPP/IL2 co-treatments (group 2): BrHPP was diluted in saline to the appropriate final concentration (depending on the dose to inject and on the last recorded body weight) so as to inject always approximately 50 ml in 30 min (microflex infusion set introduced into cephalic or external saphenous vein). All animals received 0.6 million IU IL2 per day for 7 days. IL2 was administered subcutaneously as 2 separate injections of 0.3 million IU IL2 in sterile water, 8-hour apart. Control animals received IL2 only.
# Twice weekly blood samples (1 to 4 ml) were withdrawn from femoral vessels/artery into EDTA containing tubes. Tubes were shipped overnight at room temperature (RT) before flow cytometry analyses.
# Peripheral γδ lymphocytes were analysed twice weekly by flow cytometry on total monkey blood, after double staining with anti-CD3-PE antibody and anti-Vgamma9-FITC antibodies and/or anti Vd2 antibodies (CD3-PE: SP34 clone, BD Biosciences Pharmingen, Le Pont de Claix, France). Anti Vgamma 9, clone 7B6 is a monoclonal raised to human Vgamma 9 but that cross-reacts with cynomolgus cells. It was purified by affinity chromatography on protein A and coupled to FITC as previously described.
# Briefly, 50 μl monkey blood is incubated 15 min at RT with 5 μl anti-CD3-PE and 6 μl anti-delta2-FITC or 10 μl anti-gamma9-FITC antibodies. Antibodies are washed with 3 ml 1×PBS, centrifuged for 4 min at 1300 rpm at RT and supernatant is discarded. Red cells are lysed with the OptiLyse C reagent (Immunotech-Beckman-Coulter, Marseilles, France) according to the manufacturer's instructions. At the final step, stained white blood cells are recovered by centrifugation and resuspended in 300 μl PBS+0.2% PFA.
# IFNγ = assay: Serum IFNγ by ELISA after BrHPP injection in cynomolgus monkeys; assay type: in vivo, cynomolgus monkeys (M. fascicularis)
# Procedure: Serum cytokines (TNFα and INFg) were detected and quantified with the BIOSOURCE Cytoscreen™ ELISA monkey TNFa and Cytoscreen™ ELISA monkey INFg respectively (purchased from CliniSciences, Montrouge, France) according to the manufacturer's instructions.
# Samples of sera were collected from group 2 animals during the first dose range assay (0 to 80 mg/kg) just before injection then 1 and 4 hours post injection, and assayed by ELISA specific for TNFa and IFNg.
# Phosphostim was administered i.v., as slow infusions (50 ml in 30 minutes), at various dose levels to five groups of two animals (one male+one female). Males received two successive injections of BrHPP (Day 0 and Day 22) before sacrifice and females four injections (Days 0, 22, 52 and 84). Two females, selected upon their level of response to the 4th treatment, received a supplementary injection of BrHPP alone at Day 91, during γδ cell peripheral increase, for systemic cytokine dosages.
# [1] = highest concentration (160 mg/kg), second injection + IL2
substance,measurement,setting,value
3-(bromomethyl)-3-butanol-1-yl-diphosphate [BrHPP],% and absolute numbers of Vg9Vd2,Vg9Vd2 T cells; 0.2 mg/kg + IL2 7 days,undistinguishable from the control animals
same,peak of increase in peripheral γδ cells,"Vg9Vd2 T cells; 20 mg/kg once or 4 mg/kg x 5 + IL2, group 1",7 days
same,% and absolute numbers of Vg9Vd2,"Vg9Vd2 T cells; 4 to 80 mg/kg + IL2, day 7",A dose range effect was observed
same,expansion at recall,"Vg9Vd2 T cells; first 20 mg, then 80 mg",expansions comparable to animals treated with 80 mg/kg at the first injection
same,expansion at recall,"Vg9Vd2 T cells; first 80 mg/kg, then 20 mg/kg, vs first injection at 20 mg/kg",decreased expansion
same,% of Vg9Vd2,"Vg9Vd2 T cells; five daily injection of 0.2 mg/kg BrHPP alone, 4 monkeys",expansion was not significant
same,Follow up of Vg9Vd2,"Vg9Vd2 T cells; four daily injections 1, 4, 16, 32 mg/kg BrHPP alone, two animals",a decrease at day two post first injection
same,increase of Vg9Vd2,"Vg9Vd2 T cells; fourth injection of 80 mg/kg BrHPP and IL2, five animals",detectable increase of Vg9Vd2 although lower than that obtained in the third injection
same,absolute numbers of Vg9Vd2 (mean),Vg9Vd2 T cells; [1],"10,000 Vg9Vd2 cells/mm3"
same,level of circulating Vg9Vd2 among circulating CD3 positive cells,Vg9Vd2 T cells; [1],about 80%
same,Absolute increase of Vg9Vd2,"Vg9Vd2 T cells; same dose split in 5 daily injections of 4 mg/kg + IL2 5 days, 4 mg/kg",8 × and 18 ×
same,amplification rate at the second injection vs first,"Vg9Vd2 T cells; second single shot 20 mg/kg + IL2, animals with 5 daily 4 mg/kg at first injection",slightly higher amplification rate
same,amplification rate in the second injection vs first,"Vg9Vd2 T cells; second single shot 20 mg/kg + IL2, animals with single shot at first injection",slightly reduced amplification rate
same,Absolute increase of Vg9Vd2,"Vg9Vd2 T cells; single dose 20 mg/kg + IL2 5 days, 20 mg/kg",30 × and 40 ×
same,increase of Vγ9Vδ2,"Vg9Vd2 T cells; third cycle 80 mg/kg + IL2, control animal which received only IL2 in first two courses",around 40
same,increase of Vγ9Vδ2 at the third injection,"Vg9Vd2 T cells; third injection 80 mg/kg + IL2, animal 2034",28 ×
same,amplification of Vγ9Vδ2,"Vg9Vd2 T cells; third injection 80 mg/kg + IL2, three other animals",lower than 40
same,mean increase of peripheral γδ cell number,"Vg9Vd2 T cells; total amount of 20 mg/kg BrHPP + IL2, day 7",24 fold
same,IFNg in the sera,IFNγ; fifth injection 80 mg/kg without IL2 at peak after fourth injection,"detectable at one hour post injection, and increased at 4 hours post injection"
same,Assessment of IFNγ,"IFNγ; first dose range assay 0 to 80 mg/kg, 1 and 4 hours post injection",Did not Give Significant Results
